In patent publication US5698674A, “Triheterocyclic peptides capable of binding the minor and major grooves of DNA” (The Regents of the University of California, priority 1994, dated 1997):
Values joined by “and” are separate entries in the source; they are usually repeats but may differ in a detail not shown here. Identical values can stand only once. “Also recorded” adds a separate entry of the source. Like-named read-outs stand apart in the source and are kept apart here.

Legend:
[1] = biological target: d(GGCGCAAATTTGGCGG)(SEQ ID NO:1)/d(CCGCCAAATTTGCGCC)(SEQ ID NO:2); assay: Hoechst 33258 (Ht) fluorescence competition, equilibrium association constants with hexadecamer duplex; assay type: binding; settings: for log KL1: association constant of first ligand, H2O, 10 mM phosphate buffer, pH 7.0, 10 mM NaCl, 35° C, for Ht = log KHt1, Dm, 2, 5a-c recalculated from previously collected data; for log KL1 / log KL2 / log KHtL: mean ± SD; for log KL1 / log KL2: Ht; for log KL2: association constant of second ligand, for Ht = log KHt2, Dm, 2, 5a-c recalculated; for log KHtL: binding of L to DNA:Ht; for log KL1 KL2: complex association constant
Procedure: Equilibrium constants for the association of 6a and 6b with oligomeric DNA were assessed by the complexing of tren-microgonotropen-a and -b to the hexadecamer d(GGCGCAAATTTGGCGG)(SEQ ID NO:1)/d(CCGCCAAATTTGCGCC)(SEQ ID NO:2) in aqueous solutions at 35° C. (2.8 mL solutions containing 0.01M phosphate buffer, pH 7.0, and 0.01M NaCl).
These reactions were followed by the competition of the dye Hoechst 33258 (Ht) with 6a and 6b for the A3 T3 minor groove binding site (an extension of Ht alone binding to dsDNA). The concentrations of 6a and 6b were confirmed by ^1 H NMR peak integration of resonances with those of an equivalent concentration of mesitoate.
As shown previously (Browne, K. A.; He, G.-X.; Bruice, T. C. J. Am. Chem. Soc. 1993, 115, 7072), monitoring the increase in fluorescence intensity as the association of Ht with the hexadecamer displaces prebound nonfluorescent ligands is an excellent method for determining equilibrium binding constants. FIG. 17 relates the equilibrium constants for the complexing of one and two Ht species to the hexadecamer with one and two L (where L=6a or 6b) binding to the hexadecamer, plus equilibrium constants for the simultaneous binding of one Ht and one L at the same site. [formula]
Eq 1, derived from FIG. 17, relates each of the equilibrium binding constants, the total fluorescence (Σθ), and [L] in terms of fluorescence (F) and [Ht]. The rationale behind FIG. 17 and the subsequent derivation of eq 1 have been described in considerable detail (Browne, et al., 1993, supra). The values of log KHt1 =7.6 and log KHt2 =9.1 used were determined from a reevaluation of data previously collected (Browne, et al., 1993, supra) and are very close to the previously determined values. A concentration independent static quenching term, Q', is included in eq 1 to account for the lessened fluorescent emission of the DNA:Ht:L complex compared to the DNA:Ht and DNA:Ht2 complexes.
The equilibrium association constants calculated as best fits to the experimental data points for 6a and 6b with eq 1 are presented in Table I. Plots of F vs. [Ht] using these constants at 8.0×10^-9, 1.0×10^-8, and 1.2×10^-8 M ligand and 5.0×10^-9 M in hexadecamer duplex are shown in FIGS. 3a and 3b.
Reagents and methods for DNA binding studies were exactly the same as used previously (He, et al., 1993, supra; Browne, et al., 1993, supra) unless stated otherwise. The values for the equilibrium constants for 2, 5a,b,c, Dm, and Ht were recalculated from previously collected data (Browne, et al., 1993, supra) using the curve fitting program SigmaPlot® 4.1.4 (Jandel Scientific, San Rafael, Calif.). The equilibrium constants for 6a and 6b were calculated with SigmaPlot® 4.1.4 using the reevaluated constants for Ht (KHt1 and KHt2).

[2] = tested on: .phi.X-174-RF DNA HaeIII restriction digest fragments; assay: Electrophoretic mobility shift assay; assay type: binding; settings: for RL vs. agent concentration: 1078 bp fragment; for order of effectiveness in increasing the apparent length of DNA fragments: RL values; for change in electrophoretic behavior: 150 μM
[3] = tested on: calf thymus topoisomerase I; assay: Topoisomerase I inhibition assays (relaxation of supercoiled pBR322); assay type: biochemical; settings: for inhibition of topoI relaxation of supercoiled pBR322: agent preincubated with DNA 1 hr before 18 hr topoI reaction, 37° C; for inhibition of topoI after partial relaxation: added after 0.5 hr topoI incubation, then 18 hr
Procedure: Inhibition of topoI's action on supercoiled pBR322 by 6b was compared to inhibition by Dm and 5b (dien-microgonotropen-b). In the first set of experiments, each agent was allowed to incubate with the DNA for 1 hr prior to the 18 hr topoI reaction period.
In closely related experiments, the mode of inhibition of topoI was examined. This was accomplished by allowing the supercoiled DNA to be partially relaxed for 0.5 hr with topoI before any other DNA ligands were added (FIG. 6).
The buffer for all of the 50 μL reactions was composed of 50 mM Tris-HCl, pH 7.5, 50 mM KCl, 10 mM MgCl2, and 1 mM EDTA that was filtered through a sterile 0.45μ Gelman Sciences Acrodisc. Every reaction mixture contained 1 μg of supercoiled pBR322 plasmid (Pharmacia) and, except for the supercoiled control, every reaction mixture included 10 units of calf thymus topoisomerase I (Bethesda Research Laboratories).
All reactions were extracted twice with water-saturated phenol, extracted once with chloroform, and precipitated with ammonium acetate and ethanol.
The different helical forms of pBR322 created by the relaxation assays were electrophoretically separated through a 4% NuSieve 3:1 (hydroxyethylated) agarose gel (vertical, 0.8 mm) in 40 mM Tris-acetate, pH 8.0 and 1 mM EDTA for 8 hr at 2 V/cm.

[4] = tested on: 167 bp EcoRI/RsaI pBR322 restriction fragment; assay: DNase I footprint analysis; assay type: binding
[5] = tested on: d(CGCA3 T3 GCG (SEQ ID NO:3))2; assay: Dynamics of ligand exchange in the 1:1 complex (ROESY NMR); assay type: binding; settings: 10° C
Procedure: The data matrix was zero filled to 2K and appodized with a gaussian function to give a line broadening of 1 Hz in both frequency domains. The ROESY experiment was recorded at 10° C. using the Kessler pulse sequence (Kessler, H.; Griesinger, C.; Kerssebaum, R.; Wagner, E.: Ernst, R. J Am. Chem. Soc. 1987, 109, 607) with a mixing time of 50 ms and a locking field strength of 2.5 kHz.
The linearity of the NOE build-up with tm was checked for most of the dsDNA proton interactions between 50 and 180 ms and a 5-20 fold increase was found in the NOE volume integrals from the 50 to 180 ms mixing times. The exchange rate (kex) was calculated from eq 3 as follows:
kex =ln((1+R)/2.tau.m (1-R)), s^-1 eq(3) […]
The free energy of activation, ΔG*, for this exchange process at a certain temperature, T (K), was calculated from eq 4 (Gunther, H. "NMR Spectroscopy: An Introduction", John Wiley, New York, 1980, p. 241).
Exchanges between two equivalent binding sites have been proposed for dsDNA complexes of distamycin (Pelton et al., 1990, supra) and netropsin (Patel et al., 1985, supra). If we consider that the exchange is governed by a "flip-flop" mechanism (Pelton et al., 1990, supra) (FIG. 18), not excluding the possible existence of a fast sliding motion of 6b in the minor groove, the rate of exchange can be calculated (Experimental Section).

[6] = tested on: d(GGCGCAAATTTGGCGG)(SEQ ID NO:1)/d(CCGCCAAATTTGCGCC)(SEQ ID NO:2); settings: hexadecamer; Browne et al., 1993; cited from earlier work
[7] = tested on: mice; settings: cited from earlier work
[8] = tested on: d(CGCA3 T3 GCG (SEQ ID NO:3))2; settings: 30° C; Pelton et al., 1990; cited from earlier work
[9] = 25 and 50 μM (0.25 and 0.5 ligand/bp DNA)

Row | Structure (SMILES) | log KL1 [1] | log KL2 ([1]; pH 7.0, 35° C) | log KHtL ([1]; pH 7.0, 35° C) | log KL1 KL2 ([1]; pH 7.0, 35° C) | RL vs. agent concentration [2] | order of effectiveness in increasing the apparent length of DNA fragments [2] [a^~ 6b>>distamycin>tren] | inhibition of DNase I cleavage at the four A+T-rich binding sites ([4]; 5 μM (0.05 ligand/bp DNA)) | inhibition of DNase I cleavage at the four A+T-rich binding sites [4, 9] | change in electrophoretic behavior [2] | also measured
1 | CC(=O)Nc1cc(C(=O)Nc2cc(C(=O)Nc3cc(C(=O)NCCCN(C)C)n(C)c3)n(CCCCNCCN(CCN)CCN)c2)n(C)c1 [Compound 6b] | 8.9 ± 0.08 | 9.0 ± 0.2 | 10.3 ± 0.1 | 17.9 | quite concentration dependent and sigmoidal in response | 6 | did not produce detectable inhibition of DNase I cleavage | specific inhibition of cleavage was observed at three of the four sites |  | KL1 (association constant) ([1]; first ligand, hexadecamer A3T3 site, pH 7.0, 35° C): 7.9e+08 M⁻¹ and 8e+08 M⁻¹; complex equilibrium association constants (KL1 KL2) ([1]; hexadecamer, Table I): 8×10^17 M^-2; quenching of Ht fluorescence ([1]; in DNA:Ht:L complex, from Q'): 36%; KL2 ([1]; second ligand, hexadecamer, pH 7.0, 35° C): 1e+09 M⁻¹; electrophoretic mobility of DNA restriction fragments ([2]; increasing concentration 20, 40, 60, 80 μM): the mobility of DNA restriction fragments decreases; inhibition of topoI relaxation of supercoiled pBR322 ([3]; 10 μM): the predominant isomer is the fully supercoiled species; inhibition of topoI after partial relaxation ([3]; 30 μM): inhibited topoI even after pBR322 was considerably unwound; inhibition of topoI relaxation of supercoiled pBR322 ([3]; 30 μM): complete inhibition of topoI; activation energy (ΔG*) of exchange [5]: ~ 17 kcal/mol
2 | Cn1cc(NC(=O)c2cc(NC(=O)c3cc(NC=O)cn3C)cn2C)cc1C(=O)NCCC(=N)N [Dm, Distamycin] | 7.6 ± 0.09 | 8.4 ± 0.08 | 8.8 ± 0.09 | 16.0 | does not demonstrate very marked changes even at the highest concentrations examined | 6 | did not produce detectable inhibition of DNase I cleavage | specific inhibition of cleavage was observed at three of the four sites | smaller changes at 150 μM (0.66 ligand/bp) than 6a or 6b at 40 μM | equilibrium constant for 1:1 complex formation [6]: 4e+07 M⁻¹; inhibition of topoI after partial relaxation ([3]; 150 μM): no effect; inhibition of topoI relaxation of supercoiled pBR322 ([3]; 150 μM): only partially inhibited; also recorded: partial inhibition; LD50 ([7]; i.p.): 500 mg/kg; LD50 ([7]; i.v.): 75 mg/kg; enhancements in or increased rates of DNase I cleavage at specific sequences ([4]; highest concentrations, 5'- and 3'-labeled fragments): showed enhancements similar to those found previously; rate constant for exchange [8]: 0.2 s⁻¹
3 | CN1CCN(c2ccc3[nH]c(-c4ccc5[nH]c(-c6ccc(O)cc6)nc5c4)nc3c2)CC1 [Ht, Hoechst 33258] | 7.6 and 7.6 ± 0.1 | 9.1 and 9.1 ± 0.2 |  |  |  |  |  |  |  | 
4 | NCCN(CCN)CCN [Tren, tris(2-aminoethyl)amine] |  |  |  |  |  | 6 |  |  | no apparent change in electrophoretic behavior | 
